Experiment [1] in a line: Binding affinity to human telomeric DNA.
A short description of experiment [2]: Cell cycle arrest in […] cells assessed as accumulation at G2/M phase at 75 uM. The format is functional, cell-based. The following applies: Homo sapiens.
Experiment [3] is described as follows: Cell cycle arrest in […] cells assessed as accumulation at S phase at 75 uM. The following applies: Homo sapiens. Type of experiment: functional, cell-based.
Experiment [4] can be described thus: Cell cycle arrest in […] cells assessed as accumulation at G1 phase at 300 uM. Type of experiment: functional, cell-based. The following applies: Homo sapiens.
Experiment [5] is filed under the species Homo sapiens. In words: Stabilization effect on human telomeric DNA assessed as differential melting temperature by DSC assay. On the technique in general: Differential scanning calorimetry records heat flow against a reference as temperature is scanned.
For experiment [6], the species on record is Homo sapiens. Put plainly: Stabilization effect on human telomeric DNA assessed as differential melting temperature in the presence of double strand DNA by FRET assay.
The nature of experiment [7]: Cell cycle arrest in […] cells assessed as accumulation at G1 phase at 75 uM. The following applies: Homo sapiens. The format is functional, cell-based.
A short description of experiment [8]: Cell cycle arrest in […] cells assessed as accumulation at G2/M phase at 300 uM. The following applies: Homo sapiens. Type of experiment: functional, cell-based.
A short description of experiment [9]: Cell cycle arrest in […] cells assessed as accumulation at Sub G1 phase at 75 uM. Type of experiment: functional, cell-based. The settings on record: Homo sapiens.
A short description of experiment [10]: Cell cycle arrest in […] cells assessed as accumulation at S phase at 300 uM. The following applies: Homo sapiens. The format is functional, cell-based.
The species named for experiment [11] is Homo sapiens. In words: Stabilization effect on human telomeric DNA assessed as differential melting temperature by FRET assay.
For experiment [12], the species on record is Homo sapiens. In words: Inhibition of telomerase extension activity at 50 uM by PCR based TRAP assay.
A short description of experiment [13]: Cytotoxicity against […] cells by MTT assay. The format is functional, cell-based. The settings on record: Homo sapiens.
Experiment [14] is described as follows: Cell cycle arrest in […] cells assessed as accumulation at Sub G1 phase at 300 uM. The format is functional, cell-based. The following applies: Homo sapiens.
The nature of experiment [15]: Binding affinity to hairpin DNA. Further details: species or system Homo sapiens.

The source made the active and inactive calls. The rule behind the calls is not given here.

As for `NCC1=C2CNC(=O)C3=CC=C(CNC(=O)c4cc(CN)c(o4)CNC(=O)C4=CC=C(CNC(=O)C(=C1)O2)O4)O3`, binding in experiment [1] was put at a Kd of 14.5 µM. The Activity in [2] was 18.8%; in experiment [3] it was 8.8%; in experiment [4] it was 39%; in [7] it was 23.5%; in [8], 5.5%; in [9], 47%. The Activity worked out at 4.8% in [10] and 49% in [14]. In addition, the ΔTm – broadly, the change in melting temperature against a reference sample – in experiment [5] was determined as 6.6 °C; in experiment [6], 12 °C; in experiment [11], 12 °C. In addition, the result in experiment [12] was Active. In addition, the IC50 (in general, the concentration that inhibits the measured activity by half) in experiment [13] was 500 µM.
Turning to `NCCC(=O)NCC1=C2CNC(=O)C3=CC=C(CNC(=O)c4cc(CNC(=O)CCN)c(o4)CNC(=O)C4=CC=C(CNC(=O)C(=C1)O2)O4)O3`, in [1], binding was characterised by a dissociation constant (Kd) of 3.1 µM. Besides, the Activity worked out at 11.5% in experiment [2]; 7% in [3]; 41.4% in experiment [4]; 31.5% in experiment [7]; 4.8% in experiment [8]; 46% in experiment [9]. For the same compound, the Activity in [10] was found to be 4.2%; in experiment [14] it was 48.5%. In addition, the ΔTm in [5] amounted to 9.2 °C; in experiment [6] it was 17 °C; in experiment [11], 17 °C. For the same compound, the result in [12] was Active. In [13], this compound yielded an IC50 of 500 µM.
Regarding `NCCC(=O)NCc1cc2oc1CNC(=O)C1=CC=C(CNC(=O)C3=CC=C(CNC2=O)O3)O1`, the Kd (in general, the free concentration of one partner at which half of the binding sites on the other are occupied at equilibrium, for simple one-to-one binding) turned out to be 21 µM in experiment [1] and 700 µM in [15]. In addition, the ΔTm in experiment [5] came out at 3 °C; in [6], 7 °C; in experiment [11], 10 °C.
For `NCc1cc2oc1CNC(=O)C1=CC=C(CNC(=O)C3=CC=C(CNC2=O)O3)O1`, in that order: 29 µM, 950 µM, 2 °C, 7 °C and 9 °C.

The values above are taken from ChEMBL document CHEMBL1137612, “Furan based cyclic oligopeptides selectively target G-quadruplex” (J Med Chem, 2007).
